# US20170000129A1, “METHOD FOR TREATING MINERAL SLURRIES WITH A BIOCIDE” (priority 2015, published 2017)
# How the values were obtained:
# [1] = system: bacteria from a contaminated kaolin product; experiment: Kaolin slurry preservation test, challenge: on day 20 samples inoculated with ~10^5 cfu/ml bacteria from a contaminated kaolin product; assay type: cell-based
# Description: (§1) In the comparative testing, dry kaolin was mixed with water to achieve a 65% solid slurry material. This material contained no biocide. The slurry was then split into 200 gram aliquots and dosed with different biocides at different concentration as shown in Tables 1-3. All samples were kept at 50° C. until the end of the testing, which was up to 28 days.
# (§2) The protocol for the testing of each sample is as follows: • 1) dosed with a recorded level of biocide; • 2) mixed for 24 hours contact time and plated using standard method agar for bacterial growth; • 3) remixed daily for 1 hour and retested for bacterial growth at Day 3; • 4) remixed daily for 1 hour and retested for bacterial growth at Day 7; • 5) remixed daily for 1 hour and retested for bacterial growth at Day 14; • 6) on day 20, samples were split into two containers: one container was inoculated (or challenged) with ˜10^5 cfu/ml bacteria, the other was left “as treated”, the challenge material was obtained from a contaminated kaolin product and is assumed to be representative of the types of bacteria that are seen in the kaolin industry, and the two sets of samples were prepared for Day 21 testing; • 7) both sets were remixed daily for 1 hour and retested for bacterial growth at Day 21; and • 8) both sets remixed daily for 1 hour and retested for bacterial growth at Day 28.
# [2] = system: bacterial growth in kaolin slurry; experiment: Kaolin slurry preservation test: biocide-dosed 65% solids slurry plated on standard method agar, samples as treated; assay type: cell-based, bacteria
# Description: as §1
# A number of different and known biocides were used in the study and they include glutaraldehyde (glute), 1,2 benzithiazolin-3-one (BIT), tetrahydro-3-5-methyl-2H-1,3,5-thiadizine-2-thione (thione), isothiazoline (ISO), bronopol (BNPD) or orthophenyl phenate (OPP). For shorthand purposes, the study refers to the tradename of the biocide, which is found in the above listing of the biocides. Metam sodium is designated as SMDC and MDTCMA is used without change
# as §2
# Different contact times were used to see how quickly the bacterial population was effected by the biocide.
structure (smiles),measurement,setting,value
"CN.CNC(=S)S [MDTCMA, methylammonium monomethyldithiocarbamate]","Log Red, 21 day Challenge","[1]; 500 ppm, Table 2",3
same,"Log Red, 28 day Challenge","[1]; 500 ppm, Table 2",3
same,"cfu/mL, 21 day Challenge","[1]; 500 ppm, Table 2","73,000 cfu/mL"
same,"cfu/mL, 28 day Challenge","[1]; 500 ppm, Table 2","65,000 cfu/mL"
same,"Log Red, 21 day Challenge","[1]; 1000 ppm, Table 2",3
same,"Log Red, 28 day Challenge","[1]; 1000 ppm, Table 2",3
same,"cfu/mL, 21 day Challenge","[1]; 1000 ppm, Table 2","52,000 cfu/mL"
same,"cfu/mL, 28 day Challenge","[1]; 1000 ppm, Table 2","32,000 cfu/mL"
same,"Log Red, 21 day Challenge","[1]; 1000 ppm, Table 3",2
same,"Log Red, 28 day Challenge","[1]; 1000 ppm, Table 3",1
same,"cfu/mL, 21 day Challenge","[1]; 1000 ppm, Table 3","196,000 cfu/mL"
same,"cfu/mL, 28 day Challenge","[1]; 1000 ppm, Table 3","3,680,000 cfu/mL"
same,"Log Red, 21 day Challenge","[1]; 1500 ppm, Table 3",3
same,"Log Red, 28 day Challenge","[1]; 1500 ppm, Table 3",1
same,"cfu/mL, 21 day Challenge","[1]; 1500 ppm, Table 3","18,200 cfu/mL"
same,"cfu/mL, 28 day Challenge","[1]; 1500 ppm, Table 3","2,300,000 cfu/mL"
same,biocide effectiveness in challenge testing,"[1]; Table 3, challenge testing",still performed adequately
same,"biocide effectiveness after inoculation, overall result of the studies",[1]; after inoculation,effective biocide
same,"Log Red, contact time 1 day","[2]; 500 ppm, Table 1",0
same,"Log Red, contact time 3 day","[2]; 500 ppm, Table 1",1
same,"Log Red, contact time 7 day","[2]; 500 ppm, Table 1",3
same,"cfu/mL, contact time 1 day","[2]; 500 ppm, Table 1","13,140,000 cfu/mL"
same,"cfu/mL, contact time 3 day","[2]; 500 ppm, Table 1","1,880,000 cfu/mL"
same,"cfu/mL, contact time 7 day","[2]; 500 ppm, Table 1","40,000 cfu/mL"
same,performance against the BIT biocide when measuring log reduction,"[2]; 500 ppm, Table 1",performed at least as well as the BIT biocide
same,"Log Red, contact time 1 day","[2]; 500 ppm, Table 2",0
same,"Log Red, contact time 3 day","[2]; 500 ppm, Table 2",1
same,"Log Red, contact time 7 day","[2]; 500 ppm, Table 2",4
same,"Log Red, contact time 14 day","[2]; 500 ppm, Table 2",4
same,"Log Red, contact time 21 day","[2]; 500 ppm, Table 2",5
same,"Log Red, contact time 28 day","[2]; 500 ppm, Table 2",4
same,"cfu/mL, contact time 1 day","[2]; 500 ppm, Table 2","18,840,000 cfu/mL"
same,"cfu/mL, contact time 3 day","[2]; 500 ppm, Table 2","1,960,000 cfu/mL"
same,"cfu/mL, contact time 7 day","[2]; 500 ppm, Table 2","5,600 cfu/mL"
same,"cfu/mL, contact time 14 day","[2]; 500 ppm, Table 2","3,100 cfu/mL"
same,"cfu/mL, contact time 21 day","[2]; 500 ppm, Table 2","1,800 cfu/mL"
same,"cfu/mL, contact time 28 day","[2]; 500 ppm, Table 2","2,500 cfu/mL"
same,"Log Red, contact time 1 day","[2]; 1000 ppm, Table 1",1
same,"Log Red, contact time 3 day","[2]; 1000 ppm, Table 1",2
same,"Log Red, contact time 7 day","[2]; 1000 ppm, Table 1",5
same,"cfu/mL, contact time 1 day","[2]; 1000 ppm, Table 1","7,060,000 cfu/mL"
same,"cfu/mL, contact time 3 day","[2]; 1000 ppm, Table 1","1,680,000 cfu/mL"
same,"cfu/mL, contact time 7 day","[2]; 1000 ppm, Table 1","1,000 cfu/mL"
same,performance against the BIT biocide when measuring log reduction,"[2]; 1000 ppm, Table 1",far superior
same,"Log Red, contact time 1 day","[2]; 1000 ppm, Table 2",0
same,"Log Red, contact time 3 day","[2]; 1000 ppm, Table 2",4
same,"Log Red, contact time 7 day","[2]; 1000 ppm, Table 2",4
same,"Log Red, contact time 14 day","[2]; 1000 ppm, Table 2",4
same,"Log Red, contact time 21 day","[2]; 1000 ppm, Table 2",5
same,"Log Red, contact time 28 day","[2]; 1000 ppm, Table 2",4
same,"cfu/mL, contact time 1 day","[2]; 1000 ppm, Table 2","14,520,000 cfu/mL"
same,"cfu/mL, contact time 3 day","[2]; 1000 ppm, Table 2","7,000 cfu/mL"
same,"cfu/mL, contact time 7 day","[2]; 1000 ppm, Table 2","3,200 cfu/mL"
same,"cfu/mL, contact time 14 day","[2]; 1000 ppm, Table 2","2,500 cfu/mL"
same,"cfu/mL, contact time 21 day","[2]; 1000 ppm, Table 2","1,100 cfu/mL"
same,"cfu/mL, contact time 28 day","[2]; 1000 ppm, Table 2","1,700 cfu/mL"
same,"Log Red, contact time 1 day","[2]; 1000 ppm, Table 3",3
same,"Log Red, contact time 3 day","[2]; 1000 ppm, Table 3",2
same,"Log Red, contact time 7 day","[2]; 1000 ppm, Table 3",2
same,"Log Red, contact time 14 day","[2]; 1000 ppm, Table 3",3
same,"Log Red, contact time 21 day","[2]; 1000 ppm, Table 3",2
same,"Log Red, contact time 28 day","[2]; 1000 ppm, Table 3",2
same,"cfu/mL, contact time 1 day","[2]; 1000 ppm, Table 3",100 cfu/mL
same,"cfu/mL, contact time 3 day","[2]; 1000 ppm, Table 3",100 cfu/mL
same,"cfu/mL, contact time 7 day","[2]; 1000 ppm, Table 3",100 cfu/mL
same,"cfu/mL, contact time 14 day","[2]; 1000 ppm, Table 3",100 cfu/mL
same,"cfu/mL, contact time 21 day","[2]; 1000 ppm, Table 3",100 cfu/mL
same,"cfu/mL, contact time 28 day","[2]; 1000 ppm, Table 3",100 cfu/mL
same,"Log Red, contact time 1 day","[2]; 1500 ppm, Table 3",3
same,"Log Red, contact time 3 day","[2]; 1500 ppm, Table 3",2
same,"Log Red, contact time 7 day","[2]; 1500 ppm, Table 3",2
same,"Log Red, contact time 14 day","[2]; 1500 ppm, Table 3",3
same,"Log Red, contact time 21 day","[2]; 1500 ppm, Table 3",2
same,"Log Red, contact time 28 day","[2]; 1500 ppm, Table 3",2
same,"cfu/mL, contact time 1 day","[2]; 1500 ppm, Table 3",100 cfu/mL
same,"cfu/mL, contact time 3 day","[2]; 1500 ppm, Table 3",100 cfu/mL
same,"cfu/mL, contact time 7 day","[2]; 1500 ppm, Table 3",100 cfu/mL
same,"cfu/mL, contact time 14 day","[2]; 1500 ppm, Table 3",100 cfu/mL
same,"cfu/mL, contact time 21 day","[2]; 1500 ppm, Table 3",100 cfu/mL
same,"cfu/mL, contact time 28 day","[2]; 1500 ppm, Table 3",100 cfu/mL
same,biocide efficacy compared with known biocides,"[2]; Table 2, up to 28 days",comparable biocide efficacy as compared to known biocides
same,biocide effectiveness compared with thione,"[2]; Table 3, up to the 28 day testing, not challenge testing, 1000 and 1500 ppm",performed on a par with the thione
